These results are taken from US5550110A, “Endothelin Antagonists II” (Warner-Lambert Company, priority 1994, dated 1996).

Test [1] deals with T1, rat recombinant ETB receptor (CHO cells) (Rattus norvegicus, UniProt P21451).
T1 construct: expressed in transfected cells; host or cells: CHO cells
T1 sequence (P21451 27-442): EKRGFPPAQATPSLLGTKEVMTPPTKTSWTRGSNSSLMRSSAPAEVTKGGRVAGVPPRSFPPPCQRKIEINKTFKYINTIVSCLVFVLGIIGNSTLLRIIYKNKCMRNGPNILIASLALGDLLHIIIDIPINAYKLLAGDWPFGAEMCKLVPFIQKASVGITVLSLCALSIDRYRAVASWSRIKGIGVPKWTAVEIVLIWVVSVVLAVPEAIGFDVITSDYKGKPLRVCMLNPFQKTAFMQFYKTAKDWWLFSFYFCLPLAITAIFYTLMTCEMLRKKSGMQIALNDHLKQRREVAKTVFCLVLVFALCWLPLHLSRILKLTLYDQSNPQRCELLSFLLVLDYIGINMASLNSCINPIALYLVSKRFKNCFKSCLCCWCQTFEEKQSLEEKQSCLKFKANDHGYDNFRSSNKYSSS
Briefly: Inhibition of ET-1 stimulated arachidonic acid release (AAR-B). The test is classed as cell-based. The conditions noted are these: ET-1 0.3 nM. As for the experimental part:
(§1) In Vitro Inhibition of ET-1 Stimulated Arachidonic Acid Release in Cultured Rabbit Vascular Smooth Muscle Cells (AAR-A) or CHO Cells Expressing Rat Recombinant ETB Receptor (AAR-B) by Compounds of Formula I
(§2) Antagonist activity is measured by the ability of added compounds to reduce endothelin-stimulated arachidonic acid release in cultured vascular smooth muscle cells as arachidonic acid release (AAR). [^3 H] Arachidonic Acid Loading Media (LM) is DME/F12+0.5% fetal calf serum (FCS)×0.25 mCi/mL [^3 H] arachidonic acid (Amersham). Confluent monolayers of cultured rabbit renal artery vascular smooth muscle cells (AAR-A) or CHO cells expressing rat recombinant ETB receptor (AAR-B) were incubated in 0.5 mL of the LM over 18 hours, at 37° C., in 5% CO2. The LM was aspirated and the cells were washed once with the assay buffer (Hank's balanced salt solution [BSS]+10 mM HEPES+fatty acid-free BSA (1 mg/mL)), and incubated for 5 minutes with 1 mL of the prewarmed assay buffer. This solution was aspirated, followed by an additional 1 mL of prewarmed assay buffer, and further incubated for another 5 minutes. A final 5-minute incubation was carried out in a similar manner. The same procedure was repeated with the inclusion of 10 μL of the test compound (1 nM to 1 μM) and 10 μL ET-1 (0.3 nM) and the incubation was extended for 30 minutes. This solution was then collected, […] of scintillation cocktail was added, and the amount of [^3 H] arachidonic acid was determined in a liquid scintillation counter.

Test [2] relates to ETA (rabbit femoral artery). The conditions noted are these: ET-1 as agonist, endothelium-denuded rings. The source says:
(§3) In Vitro Antagonism of ET-1 Stimulated Vasoconstriction in the Rabbit Femoral Artery (ETA) and Sarafotoxin 6c Stimulated Vasoconstriction in the Rabbit Pulmonary Artery (ETB)
(§4) Male New Zealand rabbits were killed by cervical dislocation and exsanguination. Femoral and pulmonary arteries were isolated, cleaned of connective tissue, and cut into 4-mm rings. The endothelium was denuded by placing the rings over hypodermic tubing (32 guage for femoral rings and 28 guage for pulmonary rings, Small Parts, Inc, Miami, Fla.) and gently rolling them. Denuded rings were mounted in 20 mL organ baths containing Krebs-bicarbonate buffer (composition in mM: NaCl, 118.2; NaHCO3, 24.8; KCl, 4.6; MgSO4 7.H2 O, 1.2; KH2 PO4, 1.2; CaCl2.2H2 O; Ca--Na2 EDTA, 0.026; dextrose, 10.0), that was maintained at 37° C. and gassed continuously with 5% CO2 in oxygen (pH 7.4). Resting tension was adjusted to 3.0 g for femoral and 4.0 g pulmonary arteries; the rings were left for 90 minutes to equilibrate.

For test [3], the system named is endothelin receptor, cultured rabbit renal artery vascular smooth muscle cells. As to the kind of experiment: Inhibition of ET-1 stimulated arachidonic acid release (AAR-A). The note with it: ET-1 0.3 nM. The test is classed as cell-based. On the procedure: as §1, §2
Test [4] has as its target T2, endothelin receptor (ETB), rat cerebellar membranes (Rattus norvegicus, UniProt P21451).
T2 construct: thaw one aliquot of frozen rat cerebellar membranes (2 mg protein in 0.5 mL); from tissue; host or cells: rat cerebellum (membranes)
T2 sequence (P21451 27-442): T1 sequence (P21451 27-442)
Briefly: Endothelin Receptor Binding Assay-B (ERBA-B), [125I]-ET-1 binding in rat cerebellar membranes. The conditions noted are these: [125I]-ET-1 25 pM, read-out: ERRA-B IC50. On the procedure:
Endothelin Receptor Binding Assay-B (ERBA-B) [^125 I]-ET-1 Binding in Rat Cerebellar Membranes
The tissue is made up of 20 mM tris(hydroxymethyl)aminomethane hydrochloride (Trizma) buffer, 2 mM ethylenediaminetetra acetate, 100 μM phenylmethylsulfonyl fluoride.
First, thaw one aliquot of frozen rat cerebellar membranes (2 mg protein in 0.5 mL). Next, add 0.5 mL membrane aliquot to 4.5 mL cold tissue buffer, polytron at 7,500 revolutions per minute for 10 seconds. Finally, dilute tissue suspension 1/100 (0.1 mL suspension+9.9 mL tissue buffer), polytron again, and place ice.
Medium 199 with Hank's salts plus 25 mM Hepes+1 mg/mL bovine serum albumin.
Amersham [^125 I]-ET-1 (aliquots of 2×10^6 cpm per […] aliquot of [^125 I]-ET-1 with 5.2 mL dilution buffer, place on ice until use (final concentration will be 20,000 cpm per tube, or 25 pM).
Add 50 μL each of cold [^125 ]-ET-1 and competing ligand to tubes on ice. Mix in 150 μL of tissue to each tube, vortex briefly, then tap to force all liquids to bottom (total assay volume=250 μL). Then place the tubes in a 37° C. water bath for 2 hours.
Add 2.5 mL cold wash buffer (50 mM Trizma buffer) to each tube, filter, and then wash tube with additional 2.5 mL wash buffer and add to filter. Finally, wash filters with an additional 2.5 mL of cold wash buffer.
Count filters for radioactivity in gamma counter.

Test [5] relates to endothelin receptor (ETA), rabbit renal artery vascular smooth muscle cells. As to the kind of experiment: Endothelin Receptor Binding Assay-A (ERBA-A), intact cell binding of [125I]-ET-1. The note with it: [125I]-ET-1 25 pM. As for the experimental part: The compounds of Formula I are valuable antagonists of endothelin. […] Thus, the compounds of Formula I were tested for their ability to inhibit [^125 I]-ET-1([^125 I]-Endothelin-1) binding in a receptor assay according to the following procedures: Endothelin Receptor Binding Assay-A (ERBA-A) Intact Cell Binding of [^125 I]-ET-1 The cells used were rabbit renal artery vascular smooth muscle cells grown in a 48-well dish (1 cm^2) (confluent cells). The assay buffer was a medium 199 containing Hanks salts and 25 mM Hepes buffer (Gibco 380-2350AJ), supplemented with penicillin/streptomycin/fungizone (0.5%) and bovine serum albumin (1 mg/mL). Amersham radioiodinated endothelin-1 [^125 I]-ET-1 was used at final concentration of 20,000 cpm/0.25 mL (25 pM). […] Second, remove the assay buffers, place the dish on ice, and add 150 μL of cold assay buffer described above to each well. Third, add […] each of cold [^125 I]-ET-1 and competing ligand to the solution (at the same time if possible). Next, place dish in a 37° C. water bath for about 2 hours and gently agitate the dish every 15 minutes. Discard the radioactive incubation mixture in the sink and wash wells 3 times with 1 mL of cold phosphate buffered saline. Last, add […] of 0.25 molar sodium hydroxide, agitate for 1 hour on a rotator, and then transfer the sodium hydroxide extract to gamma counting tubes and count the radioactivity.

The target in test [6] is ETB (rabbit pulmonary artery) (Oryctolagus cuniculus, UniProt Q9N0W7).
Text: as §3, §4

Test [7] addresses T3, ETB (porcine pulmonary arteries) (Sus scrofa, UniProt P35463).
T3 construct: host or cells: isolated, endothelium-intact porcine pulmonary arteries
T3 sequence (P35463 27-443): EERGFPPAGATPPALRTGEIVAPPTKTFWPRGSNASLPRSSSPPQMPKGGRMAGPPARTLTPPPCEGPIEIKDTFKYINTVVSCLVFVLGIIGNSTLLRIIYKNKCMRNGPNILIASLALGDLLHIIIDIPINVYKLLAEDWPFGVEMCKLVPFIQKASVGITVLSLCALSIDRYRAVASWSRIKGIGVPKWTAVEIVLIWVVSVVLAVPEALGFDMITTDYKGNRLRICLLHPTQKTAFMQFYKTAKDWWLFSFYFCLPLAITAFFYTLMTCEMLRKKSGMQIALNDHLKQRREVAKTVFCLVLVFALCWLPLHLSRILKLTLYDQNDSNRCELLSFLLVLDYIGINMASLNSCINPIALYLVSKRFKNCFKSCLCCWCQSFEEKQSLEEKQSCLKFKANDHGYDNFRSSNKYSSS
The conditions noted are these: isolated, endothelium-intact porcine pulmonary arteries; cited from earlier work.

Peptide text beside a SMILES is read from it.

Chain of ETB (rabbit pulmonary artery) (Q9N0W7 27-441): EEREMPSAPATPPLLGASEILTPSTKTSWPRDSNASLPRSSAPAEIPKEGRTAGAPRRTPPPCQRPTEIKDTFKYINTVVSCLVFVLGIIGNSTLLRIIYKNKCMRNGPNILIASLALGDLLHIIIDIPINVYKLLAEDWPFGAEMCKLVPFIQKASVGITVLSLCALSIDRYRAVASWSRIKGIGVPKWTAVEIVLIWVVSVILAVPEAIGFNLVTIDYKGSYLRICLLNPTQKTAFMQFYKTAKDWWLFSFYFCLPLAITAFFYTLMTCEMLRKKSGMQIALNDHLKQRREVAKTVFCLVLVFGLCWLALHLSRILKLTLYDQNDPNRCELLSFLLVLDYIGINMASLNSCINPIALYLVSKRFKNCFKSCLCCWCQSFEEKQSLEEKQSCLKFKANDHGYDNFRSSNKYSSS

Turning to `CC[C@H](C)[C@H](NC(=O)[C@H](CC(=O)O)NC(=O)[C@H](CC(C)C)NC(=O)[C@H](N)C1c2ccccc2CCc2ccccc21)C(=O)N[C@H](C(=O)N[C@@H](Cc1c[nH]c2ccccc12)C(=O)O)[C@@H](C)CC` [Example 2, D-Bhg-Leu-Asp-Ile-Ile-Trp] (HELM PEPTIDE1{[N[C@@H](C(=O)[*:2])C1c2ccccc2CCc2ccccc21].L.D.I.I.W}$$$$V2.0), the IC50 in test [1] came to 9600 nM; in test [3], 100 nM; in test [4], 2100 nM; in test [5], 450 nM. For the same compound, the “pA2 Femoral” value in test [2] turned out to be 5.7.
For the compound `CC[C@H](C)[C@H](NC(=O)[C@H](CC(=O)O)NC(=O)[C@H](CC(C)C)NC(=O)[C@H](NC(C)=O)C1c2ccccc2C=Cc2ccccc21)C(=O)N[C@H](C(=O)N[C@@H](Cc1c[nH]c2ccccc12)C(=O)O)[C@@H](C)CC` [Example 6, Ac-D-Bheg-Leu-Asp-Ile-Ile-Trp] (HELM PEPTIDE1{[ac].[O=C([C@H](N[*:1])C1c2ccccc2C=Cc2ccccc21)[*:2]].L.D.I.I.W}$$$$V2.0), the IC50 is 17 nM in test [1], 3 nM in test [3], 19 nM in test [4] and 5 nM in test [5]. Further, the Kb in test [6] is 39.8 nM. Further, the “pA2 Femoral” value in test [2] was 6.8.
On to `CC[C@H](C)[C@H](NC(=O)[C@H](CC(=O)O)NC(=O)[C@H](CCCN)NC(=O)[C@H](NC(C)=O)C1c2ccccc2CCc2ccccc21)C(=O)N[C@H](C(=O)N[C@@H](Cc1c[nH]c2ccccc12)C(=O)O)[C@@H](C)CC` [Example 7, Ac-D-Bhg-Orn-Asp-Ile-Ile-Trp] (HELM PEPTIDE1{[ac].[O=C([C@H](N[*:1])C1c2ccccc2CCc2ccccc21)[*:2]].[Orn].D.I.I.W}$$$$V2.0), for which the “pA2 Femoral” value in test [2] came to 6.5. The results for the 50% inhibitory concentration (IC50) in test [3], in test [4] and in test [5] were 37 nM, 1500 nM and 22 nM, respectively.
Turning to `CC[C@H](C)[C@H](NC(=O)[C@H](CC(=O)O)NC(=O)[C@H](CCC(=O)O)NC(=O)[C@H](NC(C)=O)C1c2ccccc2CCc2ccccc21)C(=O)N[C@H](C(=O)N[C@@H](Cc1c[nH]c2ccccc12)C(=O)O)[C@@H](C)CC` [Example 8, Ac-D-Bhg-Glu-Asp-Ile-Ile-Trp] (HELM PEPTIDE1{[ac].[O=C([C@H](N[*:1])C1c2ccccc2CCc2ccccc21)[*:2]].E.D.I.I.W}$$$$V2.0), the 50% inhibitory concentration (IC50) is 27 nM in test [1], 7 nM in test [3], 22 nM in test [4] and 5.5 nM in test [5]. Further, the Kb in test [6] was 100 nM. Further, the “pA2 Femoral” value in test [2] turned out to be 6.5.
Take “ET[1,3,11,15-Ala]: linear ET analog, reported selective ETB agonist (ASASSLMDKEAVYFAHLDIIW; Endothelin-1; UniProt P05305 53-73, looked up, variant C1A C3A C11A C15A)”: in test [7], the “effect on vascular tone” value is on record as “caused vasorelaxation”.
Take ET[6-21, 1,3,11,15-Ala]: the “effect on vascular tone” value in test [7] is on record as “caused vasorelaxation”.
On to ET[8-21,11,15-Ala], for which, in test [7], the “effect on vascular tone” value is on record as “caused vasorelaxation”.
As to N-Acetyl-ET[10-21,11,15-Ala], in test [7], the “effect on vascular tone” value was “caused vasorelaxation”.
